According to patent publication US20220279826A1, “OFF-FLAVOR SUPPRESSING AGENT” (AJINOMOTO CO., INC., priority 2019, published 2022):

Columns and labels:
[1] = Sensory evaluation in stevia aqueous solution (Experimental Example 7); details: text summary of Table 21
Procedure: Each compound shown in the following Table 21 was added […] to an aqueous solution prepared by dissolving stevia (manufactured by PureCircle) ([…]) in ion exchange water (99.93 parts by weight) (hereinafter at times referred to as stevia aqueous solution) so as to achieve the concentration (addition concentration) shown in the following Table 21 to prepare each evaluation sample.
(§1) Based on the following evaluation criteria, a panel of four experts determined by consensus the intensity of off-tastes (bitter taste, harsh taste, metallic taste) derived from stevia in each evaluation sample, by comparison with a stevia aqueous solution without addition of any compound (negative control).

[2] = Sensory evaluation in pea protein aqueous solution (Experimental Example 8); details: text summary of Table 22
Procedure: (§2) Each compound shown in the following Table 22 was added to an aqueous solution prepared by dissolving powdered pea protein (6 parts by weight) and granulated sugar (4 parts by weight) in ion exchange water (90 parts by weight) (hereinafter at times referred to as pea protein aqueous solution) so as to achieve the concentration (addition concentration) shown in the following Table 22 to prepare each evaluation sample. Here, the powdered pea protein manufactured by Cosucra was used.
as §1, with “astringent” for “metallic”, “pea protein” for “stevia”

[3] = Sensory evaluation in 0.007 wt % sucralose aqueous solution (Experimental Example 11); details: Table 25
Procedure: (§3) Each compound shown in the following Table 25 was added to a 0.007 wt % sucralose aqueous solution (an aqueous solution prepared by dissolving sucralose (0.007 parts by weight) in water (99.993 parts by weight)) so as to achieve the concentration (addition concentration) shown in the following Table 25 to prepare each evaluation sample.
as §1, with “of three” for “of four”, “from sucralose” for “from stevia”, “a 0.007 wt % sucralose” for “a stevia”

[4] = Sensory evaluation in soy protein aqueous solution (Experimental Example 13); details: Table 27
Procedure: as §2, with “27” for “22”, “soy” for “pea”, “protein” for “protein (6 parts by weight) and granulated sugar”, “in” for “in ion exchange”, “(96” for “(90”, “FUJI OIL CO., LTD.” for “Cosucra”
as §1, with “astringent” for “metallic”, “soy protein” for “stevia”

[5] = Sensory evaluation in 1.5 wt % disodium phosphate aqueous solution (Experimental Example 19); details: Table 34
Procedure: as §3, with “34” for “25”, “1.5” for “0.007”, “disodium phosphate” for “sucralose”, “(aqueous” for “(an aqueous”, “disodium phosphate (1.5” for “sucralose (0.007”, “(98.5” for “(99.993”
as §1, with “taste, astringent” for “taste, metallic”, “from disodium phosphate” for “from stevia”, “a 1.5 wt % disodium phosphate” for “a stevia”

[6] = Sensory evaluation in 1 wt % methyl cellulose aqueous solution (Experimental Example 20); details: Table 35
Procedure: Each compound shown in the following Table 35 was added to a 1 wt % methyl cellulose aqueous solution (aqueous solution prepared by dissolving methyl cellulose (1 part by weight) in water (99 parts by weight)) so as to achieve the concentration (addition concentration) shown in the following Table 35 to prepare each evaluation sample. Here, the methyl cellulose manufactured by Unitec Foods Co., Ltd. was used.
as §1, with “taste, astringent” for “taste, metallic”, “from methyl cellulose” for “from stevia”, “a 1 wt % methyl cellulose” for “a stevia”

[7] = Sensory evaluation in potage solution with potassium chloride (Experimental Example 3); details: Potage solution with 0.8 wt % potassium chloride
Procedure: As shown in the following (1) to (3) below, 0.8 wt % of potassium chloride was added to a food base powder corresponding to 0.5 wt % of sodium chloride to prepare each base solution having an off-taste derived from potassium chloride.
Potassium chloride (0.8 g) was added to a commercially available powdered instant potage (manufactured by Ajinomoto Co., Inc., trade name “Knorr (registered trade mark) Cup Soup Potage”) (7.1 g), hot water (92.1 g) was added to dissolve the mixture to prepare a base solution (potage solution).
Each compound shown in the following Tables 15 to 17 was added to each base solution (ramen noodle soup solution, chicken broth solution, potage solution) so as to achieve the concentration (addition concentration) shown in the following Tables 15 to 17 to prepare each evaluation sample.
By a method similar to that in Experimental Example 1, a panel of two experts determined the intensity of off-tastes (bitter taste, metallic taste, harsh taste, astringent taste) derived from potassium chloride in each evaluation sample.

[8] = Sensory evaluation in BCAA sweetness aqueous solution (Experimental Example 6); set-up: key to off-taste suppressing effect: ±: no change from negative control; −: slightly suppressed compared to negative control; −−: suppressed compared to negative control (same level of intensity as BCAA sweetness aqueous solution in which total concentration of leucine, isoleucine, and valine (weight ratio=2:1:1) exceeds 0.8 wt % and is not more than 0.9 wt %); −−−: considerably suppressed compared to negative control (same level of intensity as BCAA sweetness aqueous solution in which total concentration of leucine, isoleucine, and valine (weight ratio=2:1:1) is not more than 0.8 wt %); details: for intensity of off-tastes (bitter taste, harsh taste) derived from amino acid (branched chain amino acid): summary of Table 20
Procedure: Each compound shown in the following Table 20 was added to an aqueous solution prepared by dissolving leucine (0.50 parts by weight), isoleucine (0.25 parts by weight), valine (0.25 parts by weight), and granulated sugar (4 parts by weight) in ion exchange water (95 parts by weight) (hereinafter at times referred to as BCAA sweetness aqueous solution) so as to achieve the concentration (addition concentration) shown in the following Table 20 to prepare each evaluation sample.
as §1, with “harsh” for “harsh taste, metallic”, “from amino acid” for “from stevia”, “a BCAA sweetness” for “a stevia”

[9] = addition concentration 10 weight ppb (1 weight ppm with respect to amino acid)
[10] = addition concentration 50 weight ppb (5 weight ppm with respect to amino acid)
[11] = addition concentration 100 weight ppb (10 weight ppm with respect to amino acid)
[12] = addition concentration 10 ppb (1.25 weight ppm with respect to potassium chloride)
[13] = addition concentration 1 weight ppb (0.1 weight ppm with respect to amino acid)

Compound	intensity of off-tastes (bitter taste, harsh taste, metallic taste) derived from stevia [1]	intensity of off-tastes (bitter taste, harsh taste, astringent taste) derived from pea protein [2]	intensity of off-tastes (bitter taste, harsh taste, metallic taste) derived from sucralose [3]	intensity of off-tastes (bitter taste, harsh taste, astringent taste) derived from soy protein [4]	intensity of off-tastes (bitter taste, harsh taste, astringent taste) derived from disodium phosphate [5]	intensity of off-tastes (bitter taste, harsh taste, astringent taste) derived from methyl cellulose [6]	off-taste suppressing effect ([7]; addition concentration 100 ppb (12.5 weight ppm with respect to potassium chloride))	off-taste suppressing effect [8, 9]	off-taste suppressing effect [8, 10]	off-taste suppressing effect [8, 11]	off-taste suppressing effect ([8]; addition concentration 200 weight ppb (20 weight ppm with respect to amino acid))	intensity of off-tastes (bitter taste, harsh taste) derived from amino acid (branched chain amino acid) [8]	off-taste suppressing effect [7, 12]	off-taste suppressing effect [8, 13]
CC(=O)c1ccc(C)o1 [2-acetyl-5-methylfuran]	suppressed	suppressed	suppressed	suppressed	suppressed	suppressed								
CC(=O)c1ccco1 [2-acetylfuran]	suppressed	suppressed	suppressed	suppressed	suppressed	suppressed	++ (intensity of the same level as potassium chloride aqueous solution with potassium chloride concentration of not less than 0.7 wt % and less than 0.75 wt %)	−	−− (suppressed compared to negative control (same level of intensity as BCAA sweetness aqueous solution in which total concentration of leucine, isoleucine, and valine (weight ratio=2:1:1) exceeds 0.8 wt % and is not more than 0.9 wt %))	−− (suppressed compared to negative control (same level of intensity as BCAA sweetness aqueous solution in which total concentration of leucine, isoleucine, and valine (weight ratio=2:1:1) exceeds 0.8 wt % and is not more than 0.9 wt %))	−− (suppressed compared to negative control (same level of intensity as BCAA sweetness aqueous solution in which total concentration of leucine, isoleucine, and valine (weight ratio=2:1:1) exceeds 0.8 wt % and is not more than 0.9 wt %))	suppressed		
CC1OCCC1=O (stereo not drawn) [2-methyltetrahydrofuran-3-one]	suppressed	suppressed	suppressed	suppressed	suppressed	suppressed								
CC1=C(O)C(=O)CC1 [cyclotene]	suppressed	suppressed	suppressed	suppressed	suppressed	suppressed		−− (suppressed compared to negative control (same level of intensity as BCAA sweetness aqueous solution in which total concentration of leucine, isoleucine, and valine (weight ratio=2:1:1) exceeds 0.8 wt % and is not more than 0.9 wt %))	−− (suppressed compared to negative control (same level of intensity as BCAA sweetness aqueous solution in which total concentration of leucine, isoleucine, and valine (weight ratio=2:1:1) exceeds 0.8 wt % and is not more than 0.9 wt %))	−− (suppressed compared to negative control (same level of intensity as BCAA sweetness aqueous solution in which total concentration of leucine, isoleucine, and valine (weight ratio=2:1:1) exceeds 0.8 wt % and is not more than 0.9 wt %))		suppressed	+++ (intensity of the same level as potassium chloride aqueous solution with potassium chloride concentration of not less than 0.65 wt % and less than 0.7 wt %)	−− (suppressed compared to negative control (same level of intensity as BCAA sweetness aqueous solution in which total concentration of leucine, isoleucine, and valine (weight ratio=2:1:1) exceeds 0.8 wt % and is not more than 0.9 wt %))
O=Cc1ccco1 [furfural, Furfural]	suppressed	suppressed	suppressed	suppressed	suppressed	suppressed		−− (suppressed compared to negative control (same level of intensity as BCAA sweetness aqueous solution in which total concentration of leucine, isoleucine, and valine (weight ratio=2:1:1) exceeds 0.8 wt % and is not more than 0.9 wt %))	−− (suppressed compared to negative control (same level of intensity as BCAA sweetness aqueous solution in which total concentration of leucine, isoleucine, and valine (weight ratio=2:1:1) exceeds 0.8 wt % and is not more than 0.9 wt %))	−− (suppressed compared to negative control (same level of intensity as BCAA sweetness aqueous solution in which total concentration of leucine, isoleucine, and valine (weight ratio=2:1:1) exceeds 0.8 wt % and is not more than 0.9 wt %))		suppressed	++ (intensity of the same level as potassium chloride aqueous solution with potassium chloride concentration of not less than 0.7 wt % and less than 0.75 wt %)	−
